# Source: patent US10272083B2, “Methods of treating chronic lymphocytic leukemia and small lymphocytic leukemia using a BTK inhibitor” (Acerta Pharma B.V., priority 2014, dated 2019)
# “Also recorded” adds a separate entry of the source.
# Legend:
# [1] = tested on: human platelet-mediated thrombus formation; assay: In vivo human thrombus formation, laser injury, VWF HA1 mice model; settings: platelets preincubated with BTK inhibitor (0.1, 0.5 or 1 μM)
# [2] = tested on: BCR activation markers CD69 and CD86; assay: In vivo potency: IgM-stimulated BCR activation markers by flow cytometry; settings: mice gavaged, 3 h post-dose, BCR stimulated with IgM
# Procedure: Mice were gavaged at increasing drug concentration and sacrificed at one time point (3 h post-dose). BCR is stimulated with IgM and the expression of activation markers CD69 and CD86 are monitored by flow cytometry to determine EC50's.
# CD86 and CD69 are cell surface proteins that are BCR activation markers. […] BCR was stimulated with IgM and the expression of activation marker CD69 and CD86 are monitored by flow cytometry and to determine EC50 values.
# [3] = tested on: canine spontaneous B-cell lymphoma; assay: Study of canine spontaneous B-cell lymphoma; format: in vivo, dogs; settings: 2.5 mg/kg once daily oral
# Text: Formula (II) is currently being evaluated in an ongoing study of canine spontaneous B-cell lymphoma. […] To date, partial remission (PR), per Veterinary Cooperative Oncology Group criteria for assessment of response in peripheral nodal lymphoma, has been observed in 2 of 6 dogs. D. M. Vali, et al., Vet. Comp. Oncol. 8, 28-37 (2010). […] L. A. Honigberg, et al., Proc. Nat. Acad. Sci. USA, 107, 13075-13080 (2010).
# [4] = tested on: 80 known pharmacologic targets such as G-protein-coupled receptors, nuclear receptors, proteases, and ion channels; assay: Binding assays with 80 known pharmacologic targets; settings: screened at 10 μM
# EGFR phosphorylation = assay: In vitro EGFR phosphorylation in A431 cells; format: cell-based; settings: 10 μM, A431 human epidermoid cancer cell line
# [5] = GLP functional observation battery in rats; format: in vivo; settings: doses through 300 mg/kg
# Text: (§1) Formula (II) was well tolerated in standard in vivo Good Laboratory Practices (GLP) studies of pharmacologic safety.
# [6] = Study of respiratory function in rats; format: in vivo; settings: doses through 300 mg/kg
# Text: as §1
# [7] = Cardiovascular function study in awake telemeterized beagle dogs; format: in vivo; settings: male beagle dogs, single doses through 30 mg/kg
# Text: as §1
# CYP3A4 = CYP3A4 (Homo sapiens, UniProt P08684); assay: In vitro loss of parent drug as catalyzed by CYPs; format: in vitro ADME
# [8] = In vitro metabolism in hepatocytes with 14C-labeled compound; format: in vitro ADME, mouse, rat, dog, rabbit, monkey, and human
# [9] = Preliminary evaluation of metabolism in plasma, bile and urine; format: in vivo; settings: bile, urine of rats, dogs, monkeys
# [10] = Glutathione binding and depletion in vitro
# CYP enzymes = assay: Nonclinical CYP interaction studies; format: in vitro ADME
# [11] = tested on: NK cells and monocytic MDSC subsets; assay: Flow cytometry of peripheral blood cell subsets in CLL patients; format: in vivo, human; settings: patients with falling ALC counts, 28 days of dosing
# Procedure: PBMCs were stained with monoclonal antibodies conjugated to fluorescent tags (flourochromes) to identify cell subsets via flow cytometry. Non-viable cells were excluded from the analysis using the dye 7-aminoactinomycin D (7-AAD). To produce the metric of percent change, the following steps were taken. First, each cell subset was defined by hierarchical flow cytometry gating. Then, the change in frequency (between day 1 and day 28) was calculated for each cell subset. MDSC subsets were measured as a % of all myeloid cells. T cell subsets were measured as a % of all CD3^+ cells, and NK cells were measured as a % of all live CD45^+ cells. […] A cycle is 28 days. A trend is observed wherein patients with decreasing ALC % had increasing MDSC (monocytic) %. This may include patients who had quickly resolving lymphocytosis and those with no initial lymphocytosis. […] This may include patients who had quickly resolving lymphocytosis and those having no initial lymphocytosis. The effects in FIG. 9 to FIG. 12 are observed in multiple cohorts, at doses including 100 mg BID, 200 mg QD, and 400 mg QD. In FIG. 13 and FIG. 14, the effects on NK cells and MDSC cells are compared to a number of other markers versus % change in ALC at C1D28 and C2D28. These other markers include CD4+ T cells, CD8+ T cells, CD4+/CD8+ T cell ratio, NK-T cells, PD-1+CD4+ T cells, and PD-1+CD8+ T cells. […]
# [12] = tested on: platelet collagen receptor glycoprotein VI (GPVI); assay: GPVI (convulxin-induced) platelet aggregation; format: cell-based, human; settings: for inhibition of GPVI platelet aggregation: FIG. 16 and FIG. 17
# Procedure: GPVI platelet aggregation was measured for Formula (II) and ibrutinib. Blood was obtained from untreated humans, and platelets were purified from […] by centrifugation. Cells were resuspended to a final concentration of 350,000/μL in buffer containing 145 mmol/L NaCl, 10 mmol/L HEPES, 0.5 mmol/L Na2HPO4, 5 mmol/L KCl, 2 mmol/L MgCl2, 1 mmol/L CaCl2, and 0.1% glucose, at pH 7.4. Stock solutions of […] were prepared on the day of experimentation and added to platelet suspensions 5 minutes (37° C., 1200 rpm) before the induction of aggregation. Aggregation was assessed with a Chronolog Lumi-Aggregometer (model 540 VS; Chronolog, Havertown, Pa.) and permitted to proceed for 6 minutes after the addition of agonist. The results are reported as maximum percent change in light transmittance from baseline with platelet buffer used as a reference.
# In FIG. 17, the results of CVX-induced (250 ng/mL) human platelet aggregation results before and 15 minutes after administration of the BTK inhibitors to 6 healthy individuals are shown.
# NK cells = assay: Antibody-dependent NK cell degranulation, CD107a flow cytometry; format: cell-based, human; settings: rituximab-coated DHL-4 target cells
# Th17 cells = assay: CD4+ T cell skewing culture, Th17; format: cell-based; settings: FIG. 24
# Procedure: (§2) Enriched CD4^+ T cells are plated on 24-well culture dishes that have been precoated 2 hr with 250 μL anti-TCRP3 (0.5 μg/mL) plus anti-CD28 (5 μg/mL) at 37° C. in PBS. The cells are then supplemented with media containing BTK inhibitors along with the skewing cytokines as indicated in the following. The Th17 and Treg cultures are grown for 4 days before analysis. The cells are maintained for an additional 3 days with skewing cytokines (Th17; 20 ng/mL IL-6, 0.5 ng/mL TGF-β, […] Treg; 0.5 ng/mL TGF-β, 5 μg/mL IL-4, 5 μg/mL IFN-γ) and are supplemented with IL2 as a growth factor.
# [13] = tested on: regulatory T cell (Treg) development; assay: CD4+ T cell skewing culture, Treg; format: cell-based; settings: FIG. 25
# Procedure: as §2
# Raji cells = assay: Rituximab ADCC 51Cr release, healthy donor NK cells vs Raji cells; format: cell-based, human; settings: 1 μM, E:T 25:1
# [14] = tested on: canine spontaneous B-cell lymphoma; settings: out of 8 dogs treated; Honigberg et al. 2010; cited from earlier work
# [15] = within the tested dose range; cited from earlier work
# Sequence of CYP3A4 (P08684 whole entry): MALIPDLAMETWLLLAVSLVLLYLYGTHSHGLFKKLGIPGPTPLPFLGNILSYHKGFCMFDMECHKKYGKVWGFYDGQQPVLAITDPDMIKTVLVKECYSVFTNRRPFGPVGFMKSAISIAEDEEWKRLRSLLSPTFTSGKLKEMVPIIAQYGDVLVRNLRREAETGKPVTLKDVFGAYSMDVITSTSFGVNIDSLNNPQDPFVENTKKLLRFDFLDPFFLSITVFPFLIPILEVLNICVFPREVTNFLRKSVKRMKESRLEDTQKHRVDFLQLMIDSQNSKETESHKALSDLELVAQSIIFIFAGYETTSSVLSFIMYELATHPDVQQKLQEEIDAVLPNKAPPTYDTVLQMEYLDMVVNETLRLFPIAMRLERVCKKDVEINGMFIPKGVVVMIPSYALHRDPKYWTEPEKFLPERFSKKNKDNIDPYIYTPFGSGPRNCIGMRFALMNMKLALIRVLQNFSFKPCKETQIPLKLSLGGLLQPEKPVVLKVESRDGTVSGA
compound,measurement,setting,value
"C=CC(=O)Nc1cccc(Nc2nc(Nc3ccc(OCCOC)cc3)ncc2F)c1 [CC-292, N-(3-((5-fluoro-2-((4-(2-methoxyethoxy)phenyl)amino)pyrimidin-4-yl)amino)phenyl)acrylamide, reference compound]",effect on human platelet-mediated thrombus formation,[1],effect similar to ibrutinib
"CC#CC(=O)N1CCC[C@H]1c1nc(-c2ccc(C(=O)Nc3ccccn3)cc2)c2c(N)nccn12 [Formula (II), (S)-4-(8-amino-3-(1-(but-2-ynoyl)pyrrolidin-2-yl)imidazo[1,5-a]pyrazin-1-yl)-N-(pyridin-2-yl)benzamide]",in vivo potency at inhibiting expression of activation markers CD69 and CD86,[2],more potent at inhibiting expression of activation makers than ibrutinib
same,drug-related adverse events,[3],No drug-related adverse events
same,partial remission (PR),"[3]; average 22 days, preliminary",2 of 6
same,activity in binding screen of 80 targets,[4],significant activity only against the A3 adenosine receptor
same,inhibition of in vitro EGFR phosphorylation,EGFR phosphorylation,no inhibition
same,neurobehavioral effects or body temperature,[5],no adverse effects
same,respiratory function,[6],no treatment-related adverse effects
same,"body temperature, cardiovascular, or ECG (including QT interval) parameters",[7],no meaningful changes
same,CYP responsible for metabolism,CYP3A4,metabolized by CYP3A4
same,unique human metabolite,[8]; hepatocytes,No unique human metabolite was identified
same,metabolites in hepatocytes,"[8]; mouse, rat, dog, rabbit, monkey, human hepatocytes",two mono-oxidized metabolites and a glutathione conjugate
same,metabolic processes,[9],"oxidation, glutathione binding, and hydrolysis"
same,glutathione binding / depletion,[10],binds to glutathione but does not deplete glutathione
same,drug-drug interaction potential via CYP enzymes,CYP enzymes,very unlikely to cause clinical drug-drug interactions
same,frequency of NK cells and monocytic MDSC subsets in peripheral blood,[11],increase in frequency in the peripheral blood
same,effect on human platelet-mediated thrombus formation,[1],no significant effect
same,inhibition of GPVI platelet aggregation,[12],does not
same,IC50,"[12]; Homo sapiens, Platelet, FIG. 16",1150 nM
same,reduction of rituximab-stimulated NK cell degranulation,NK cells,< 2%
same,effect on Th17 cells,Th17 cells,no adverse effect
same,effect on Treg development,[13],no adverse effects; also recorded: no effect
same,Grade of Diarrhea,relapsed/refractory CLL; All (N = 44),1
same,Grade of Headache,relapsed/refractory CLL; All (N = 44),½
same,Grade of Increased tendency to bruise,relapsed/refractory CLL; All (N = 44),1
same,Grade of Petechiae,relapsed/refractory CLL; All (N = 44),1
same,Treatment-related adverse event: Diarrhea,relapsed/refractory CLL; All (N = 44),4 (9) n (%)
same,Treatment-related adverse event: Headache,relapsed/refractory CLL; All (N = 44),7 (16) n (%)
same,Treatment-related adverse event: Increased tendency to bruise,relapsed/refractory CLL; All (N = 44),6 (14) n (%)
same,Treatment-related adverse event: Petechiae,relapsed/refractory CLL; All (N = 44),3 (7) n (%)
same,progression-free survival (PFS) in comparison to ibrutinib,"relapsed/refractory CLL; Kaplan-Meier, Log-Rank p-value 0.0206",An improvement in survival and a reduction in risk
same,MTD,relapsed/refractory CLL; relapsed/refractory CLL,not reached
same,dose-limiting toxicities (DLTs),relapsed/refractory CLL; relapsed/refractory CLL,No DLTs were observed
same,grade of AEs observed,relapsed/refractory CLL; relapsed/refractory CLL,only grade 1 AEs were observed
same,lymphocytosis,relapsed/refractory CLL; relapsed/refractory CLL,A lack of lymphocytosis
same,treatment-related serious adverse events (SAEs),relapsed/refractory CLL; relapsed/refractory CLL,No treatment-related serious adverse events (SAEs) were observed
same,progression in patients with 17p deletion,relapsed/refractory CLL; to date,no 17p patients have progressed
"C=CC(=O)N1CCC[C@@H](n2nc(-c3ccc(Oc4ccccc4)cc3)c3c(N)ncnc32)C1 [Ibrutinib, 1-[(3R)-3-[4-amino-3-(4-phenoxyphenyl)-1H-pyrazolo[3,4-d]pyrimidin-1-yl]piperidin-1-yl]prop-2-en-1-one, reference compound]",inhibition of GPVI platelet aggregation,[12],significantly inhibits GPVI platelet aggregation
same,effect on rituximab-mediated ADCC against Raji cells,Raji cells,strongly inhibited
same,effect on Th17 cells,Th17 cells,profound inhibition of Th17 cells; also recorded: strongly inhibits Th17 cells
same,effect on Treg development,[13],increase in Treg development; also recorded: strongly increases Treg development
same,dogs with PR,[14],3 dogs
same,maximum tolerated dose (MTD),[15],No maximum tolerated dose (MTD) was apparent
